# Laboratory results published in US9446019B2, “Sparstolonin B based pharmaceutical agent for neuroblastoma treatment” (University of South Carolina, priority 2013, dated 2016).
# What was measured:
# [1] = system: SH-SY5Y cells; assay: Cell cycle analysis by flow cytometry (propidium iodide); assay type: cell-based, human; conditions: SsnB 10 μM, 2 days; control=14.33%
# Procedure: (§1) The cell cycle progression was determined by flow cytometer analysis. Neuroblastoma cells were treated with SsnB or DMSO in DMEM with 10% FBS. Cells were collected after trypsinization with trypsin-EDTA solution (Atlanta Biologicals) and washed with 1× phosphate buffered saline (PBS). Approximately 1×10^6 cells were suspended in 300 μl of ice-cold 1×PBS, fixed by adding 700 μl of chilled absolute ethanol (to make final ethanol concentration 70%) drop wise and incubated for overnight at −20° C. Cells were pelleted at 1000×rpm for 5 min at 4° C., washed with 1×PBS for 3 times and stained with propidium iodide (Sigma-Aldrich, St. Louis, Mo.) by adding 1 ml of propidium iodide staining solution (containing 20 μg/ml propidium iodide and 10 μg/ml DNase-free RNase A in 0.1% Triton X-100/PBS) for 1 h on ice in dark. Samples were subjected to fluorescence-activated cell sorting analyses utilizing Beckman Coulter flow cytometer (Beckman Coulter, Indianapolis, Ind.). A minimum of 10,000 events were analyzed in each experiment.
# (§2) To test whether SsnB-induced cell growth inhibition occurs through cell cycle arrest, cell cycle distribution was analyzed by flow cytometry after DNA staining with propidium iodide.
# [2] = system: SK-N-BE(2) cells; assay: as above; assay type: cell-based, human; conditions: SsnB 10 μM, 4 days; control=22.63%
# Procedure: as §1, §2
# [3] = system: NGP cells; assay: as above; assay type: cell-based, human; conditions: SsnB 10 μM, 3 days; control=17.87%
# Procedure: as §1, §2
# [4] = system: IMR-32 cells; assay: as above; assay type: cell-based, human; conditions: SsnB 10 μM, 2 days; control=19.25%
# Procedure: as §1, §2
# [5] = system: SKNF-1 cells; assay: as above; assay type: cell-based, human; conditions: SsnB 10 μM, 4 days; control=14.53%
# Procedure: as §1, §2
# [6] = system: neuroblastoma cells; assay: TUNEL assay for DNA fragmentation in cells; assay type: cell-based, human
# Excerpt: Increased levels of ROS are known to induce oxidative stress which in turn cleaves DNA that leads to cell death. SsnB-induced DNA fragmentation in neuroblastoma cells was examined by terminal deoxynucleotidyl transferase dUTP nick end labeling (TUNEL) assay. In this assay, nicked DNA is identified by the addition of fluorophore-labeled dUTPs by enzyme terminal deoxynucleotidyl transferase (TdT) to the terminal ends of damaged DNA in apoptotic cells. The TUNEL-positive cells were quantitated by ImageJ programme and plotted. […] However, such TUNEL-positive cells were not detected in DMSO- or SsnB (1 μM)-treated cells.
# [7] = system: caspase-3 in neuroblastoma cells; assay: Cleaved caspase-3 by immunofluorescence and Western blotting; assay type: cell-based, human
# Procedure: For immunofluorescence staining, cells grown in Lab-TekII chamber slides (Fisher Scientific, Pittsburgh, Pa.) were treated with SsnB in complete culture medium. After treatments, cells were washed with 1×PBS, fixed with 4% paraformaldehyde/PBS for 20 min, and permeabilized with 0.2% Triton X-100/PBS for 10 min at room temperature. Cells were washed with 1×PBS for 3 times and blocked with 5% immunoglobulin (IgG) free-bovine serum albumin (BSA; Jackson ImmunoResearch Laboratories, West Grove, Pa.) in 1×PBS for overnight at 4° C. Cells were incubated with antibody raised against active form of caspase-3 (Cell Signaling Technology, Danvers, Mass.) diluted in 2.5% BSA/PBS for overnight at 4° C. Primary antibodies were detected with secondary antibodies conjugated with fluorescein isothiocyanate (FITC; Santa Cruz Biotechnology, Dallas, Tex.) for 2 h at room temperature. After washing with 1×PBS, cells were mounted with antifade Vectashield mounting media (Vector Laboratories, Burlingame, Calif.), and signals were visualized under Nikon-E600 fluorescence microscope. Nuclei were counterstained with 4′,6-diamidino-2-phenylindole (DAPI; Sigma).
# After treatment with SsnB, cells were collected, washed with 1×PBS, and lysed with 1× cell lysis buffer (Cell Signaling Technology, Danvers, Mass.) containing phenylmethylsulfonyl fluoride (PMSF) and protease inhibitors (aprotinin and leupeptin) for 30 min on ice, and centrifuged at 12000×rpm for 10 min at 4° C. Supernatant (total cell protein) was collected and stored at −80° C. Protein concentration was determined by bicinchoninic acid method using BCA protein assay kit (Pierce/ThermoScientific, Waltham, Mass.). Equal amount of proteins were diluted with 5× Laemmli samples loading buffer and boiled for five minutes. The proteins were subjected to sodium dodecyl sulfate (SDS)-polyacrylamide gel electrophoresis and analyzed by Western blots. Briefly, after electrophoresis, proteins were transferred on polyvinylidene difluoride (PVDF) membrane at 100 volt for 3 h in cold room. Membrane was blocked with 5% non-fat dry milk/TBST (20 mM Tris-Cl, pH 7.4; 150 mM NaCl with 0.1% Tween-20) for 4 h at room temperature followed by incubation in primary antibodies diluted in 2.5% non-fat dry milk/TBST for overnight at 4° C. After washing with TBST, membrane was incubated with secondary antibodies (horseradish peroxidase-conjugated goat anti-rabbit or goat anti-mouse IgG; Santa Cruz Biotechnology, Dallas, Tex.) diluted in 2.5% non-fat dry milk/TBST for 3 h at room temperature. Signals were detected by chemiluminiscence detection kit (Pierce/Thermo Fisher Scientific, Rockford, Ill.). Primary antibodies used were cleaved caspase-3 and β-actin (Cell Signaling Technology), N-myc and p53 (Santa Cruz Biotechnology).
# At cellular level, mitochondria- or receptor (Fas/FasL)-mediated pathways activate caspase signaling cascade which in turn induces DNA damage and initiates programmed cell death (apoptosis). To determine whether SsnB-induced cell death is mediated by caspase activation, Western blotting as well as immunofluorescence assay were performed to detect the active form of caspase-3 in neuroblastoma cells treated with SsnB for 2 days (SH-SY5Y and IMR-32 cells), 3 days (NGP cells) or 4 days (SKNF-1 and SK-N-BE(2) cells). The number of cleaved caspase-3 positive cells were quantitated by ImageJ programme and plotted. […]
# [8] = system: normal human cells (THP-1 cells, PMA-differentiated THP-1 macrophages, human umbilical vein endothelial cells, human aortic smooth muscle cells); assay: Cytotoxic response in normal human cells; assay type: cell-based; conditions: 1-20 μM and up to about 100 μM
compound,measurement,setting,value
"O=c1occ2c3c(ccc(O)c13)Oc1ccc(O)cc1-2 [SsnB, 8,5′-dihydroxy-4-phenyl-5,2′-oxidoisocoumarin]",G2/M phase cells,[1],23.98%
same,G2/M phase cells,[2],27.15%
same,G2/M phase cells,[3],26.98%
same,G2/M phase cells,[4],23.45%
same,G2/M phase cells,[5],20.91%
same,number of TUNEL-positive cells vs control,"[6]; SsnB 1 μM, nonsignificant",almost similar to DMSO-treated samples
same,number of TUNEL-positive cells vs control,"[6]; SsnB 10 μM, all neuroblastoma cells",significantly higher
same,"cleaved caspase-3 level, Western blot","[7]; SsnB 1 μM, nonsignificant vs control",almost undetectable levels
same,"cleaved caspase-3 protein bands (17 and 19 kDa), Western blot",[7]; SsnB 10 μM,present
same,cleaved caspase-3 positive cells (immunofluorescence),[7]; SsnB 10 μM vs DMSO or SsnB 1 μM,significantly increased
same,exposure time at which caspase-3 cleavage is seen,"[7]; SsnB 10 μM, SH-SY5Y cells, time points 6, 12, 24, 48 h",≤ 6 h
same,cytotoxic response,[8],No cytotoxic response
